Measured values taken from patent publication US6407237B1, “Crystal forms of 9-substituted hypoxanthine derivatives” (NeoTherapeutics, Inc., priority 2000, dated 2002).
Entries after “also recorded” stand apart in the source; their conditions may differ.

Columns and labels:
[1] = Hygroscopicity of the crystal structure; format: physicochemical
[2] = Hydration and dehydration (interconversion) studies of crystal structures, checked by X-ray powder pattern; format: physicochemical; conditions: for crystal structure after incubation in humid chamber (H2O vapor) at 25° C. / crystal structure after incubation in humid chamber (H2O vapor) at 70° C.: 48 h
Method: X-ray powder patterns were measured with a β-Generator Philips PW 1120/90 equipped with a CuKα Guinier-de Wolff Camera No. 11 (Enraf-Nonius).
Starting from different crystal structures, hydration and dehydration studies were performed (FIG. 1, Table 2). The crystal structure designated Type I (lot NTA-107-B) is obtained by equilibration of Type II (lot NTA-107-A) with water vapor in a humid chamber, whereas Type III was generated by dehydration of Type I in a vacuum drying oven at elevated temperature (Tables 1 and 2). The X-ray powder patterns of the Type I and II crystal structures are not sensitive to small changes in the water content and appear uniform from batch to batch.
The well-resolved powder diagrams of these two forms indicate well ordered crystal lattice structures (FIG. 3). […] The manufacturing process leads to a water-soluble (5% w/v) crystalline product of the monopotassium salt of N-4-carboxyphenyl-3-(6-oxohydropurin-9-yl) propanamide monohydrate Type I (active pharmaceutical ingredient). N-4-carboxyphenyl-3-(6-oxohydropurin-9-yl) propanamide monopotassium salt exists, as known so far, in three different crystal structures (Types I-III) depending upon the water content.

[3] = format: physicochemical
From the text: The occurrence of polymorphic forms can be examined by various physico-chemical investigation techniques. The solubility measured under defined conditions can provide information regarding the occurrence of different crystal structures. However, the preferred technique for the investigation of the polymorphism of N-4-carboxyphenyl-3-(6-oxohydropurin-9-yl) propanamide monopotassium salt is the analysis of the X-ray diffraction powder diagrams, which allows the distinct crystal structures to be clearly distinguished by their characteristic powder patterns. The powder pattern, position, intensity and sharpness of the bands are dependent upon the crystal structure and the fine arrangement of the atoms in the crystal lattice, which in turn are both influenced by the content of crystal water. For this study, material from different batches of N-4-carboxyphenyl-3-(6-oxohydropurin-9-yl) propanamide monopotassium salt was used, either in the original or in a dry or wet state (Table 1).
In aqueous solutions prepared with material which was synthesized by the route designated “direct crystallization” a fine microcrystalline precipitate of the N-4-carboxyphenyl-3-(6-oxohydropurin-9-yl) propanamide free acid was formed after 2-3 min. Although the assay of K is 1.0 equivalent and although direct crystallized K-salt is isolated at equal or slightly higher pH (H 8.7) than K-salt synthesized from N-4-carboxyphenyl-3-(6-oxohydropurin-9-yl) propanamide free acid (pH 8.5), only the latter is completely soluble in water. […] The free acid precipitates and generates the di-K salt until its concentration is high enough to keep the precipitation and dissolution of the free acid at equilibrium. The solubility of N-4-carboxyphenyl-3-(6-oxohydropurin-9-yl) propanamide Type II (lot Am 960/a) in aqueous solution was measured as a function of temperature (FIG. 2). In the solubility curve a plateau is reached at 70° C. (17% w/w).

## O.O=C(CCn1cnc2c(=O)[nH]cnc21)Nc1ccc(C(=O)[O-])cc1.[K+] [Type I, N-4-carboxyphenyl-3-(6-oxohydropurin-9-yl) propanamide monopotassium salt monohydrate]
[1]
  hygroscopicity: only slightly hygroscopic
[2]; monopotassium salt monohydrate
  crystal structure after incubation in humid chamber (H2O vapor) at 25° C.: stable; also recorded: remains unchanged; also recorded: Type I
  crystal structure after incubation in humid chamber (H2O vapor) at 70° C.: stable; also recorded: remains unchanged; also recorded: Type I
[2]; 140° C., 5 mbar, monopotassium salt monohydrate
  crystal structure after strong drying in vacuum oven: Type III was obtained

## O=C(CCn1cnc2c(=O)[nH]cnc21)Nc1ccc(C(=O)[O-])cc1.[K+] [Type III, N-4-carboxyphenyl-3-(6-oxohydropurin-9-yl) propanamide monopotassium salt]
[2]; monopotassium salt
  crystal structure after incubation in humid chamber (H2O vapor) at 25° C.: turns completely into Type I

## O=C(CCn1cnc2c(=O)[nH]cnc21)Nc1ccc(C(=O)O)cc1 [free acid, N-4-carboxyphenyl-3-(6-oxohydropurin-9-yl) propanamide]
[3]
  solubility of the free acid in water: extreme low solubility

## O=C(CCn1cnc2c(=O)[nH]cnc21)Nc1ccc(C(=O)[O-])cc1.[K+] [Type II, N-4-carboxyphenyl-3-(6-oxohydropurin-9-yl) propanamide monopotassium salt]
[3]
  solubility in aqueous solution as a function of temperature, plateau of solubility curve: 17 % w/w
  solubility in water: about 10 % (w/v)
[2]; monopotassium salt
  crystal structure after incubation in humid chamber (H2O vapor) at 25° C.: Type II
  crystal structure after incubation in humid chamber (H2O vapor) at 70° C.: interconversion of Type II into Type I crystal structure
